# Assay results as given in ChEMBL document CHEMBL4371025, “Discovery and evaluation of novel FAAH inhibitors in neuropathic pain model” (Bioorg Med Chem Lett, 2019).
# Key:
# [1] = molecular target: T1, Fatty-acid amide hydrolase 1 (Rattus norvegicus, UniProt P97612); assay: Inhibition of rat FFAH expressed in Escherichia coli using AAMCA as substrate incubated for 1 min measured for 50 mins by fluorescence assay
# T1 sequence (P97612 whole entry): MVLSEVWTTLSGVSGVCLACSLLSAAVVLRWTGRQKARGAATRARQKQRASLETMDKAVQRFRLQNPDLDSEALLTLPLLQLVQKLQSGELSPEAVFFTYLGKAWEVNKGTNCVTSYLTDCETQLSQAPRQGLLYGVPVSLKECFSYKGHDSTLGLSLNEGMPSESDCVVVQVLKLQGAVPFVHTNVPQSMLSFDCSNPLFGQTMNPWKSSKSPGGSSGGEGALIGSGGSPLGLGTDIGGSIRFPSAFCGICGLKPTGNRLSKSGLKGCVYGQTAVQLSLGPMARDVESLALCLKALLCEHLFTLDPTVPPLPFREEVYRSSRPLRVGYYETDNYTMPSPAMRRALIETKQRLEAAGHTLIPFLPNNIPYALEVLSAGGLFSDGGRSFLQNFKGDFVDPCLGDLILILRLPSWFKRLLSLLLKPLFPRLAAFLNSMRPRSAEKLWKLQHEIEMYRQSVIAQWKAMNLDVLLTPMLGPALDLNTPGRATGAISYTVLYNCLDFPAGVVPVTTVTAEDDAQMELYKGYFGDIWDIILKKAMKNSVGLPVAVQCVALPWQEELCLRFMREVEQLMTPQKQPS
# [2] = Intrinsic metabolic stability in human liver microsomes assessed as metabolic turnover rate per mg protein at 1 uM preincubated for 5 mins followed by NADPH cofactor addition and measured after 30 mins by LC-MS/MS analysis; format: ADME, Microsome; details: 0.5 h
# [3] = Intrinsic metabolic stability in rat liver microsomes assessed as metabolic turnover over per mg protein at 1 uM preincubated for 5 mins followed by NADPH cofactor addition and measured after 30 mins by LC-MS/MS analysis; format: ADME, Microsome; details: 0.5 h
# [4] = AUC (0 to 48 hrs) in Sprague-Dawley rat at 3 mg/kg, iv administered as single dose by LC-MS/MS analysis; format: ADME, organism-based; set-up: dose 3 mg/kg, time < 48 hr, route intravenous; details: in vivo
# [5] = Clearance in Sprague-Dawley rat at 3 mg/kg, iv administered as single dose by LC-MS/MS analysis; format: ADME, organism-based; details: in vivo
# [6] = Elimination half life in Sprague-Dawley rat at 3 mg/kg, iv administered as single dose by LC-MS/MS analysis; format: ADME, organism-based; details: in vivo, read-out: beta t1/2 (converted)
# [7] = Cmax in Sprague-Dawley rat at 10 mg/kg, po administered as single dose via gavage by LC-MS/MS analysis; format: ADME, organism-based; set-up: dose 10 mg/kg, route oral; details: in vivo
# [8] = Oral bioavailability in Sprague-Dawley rat at 10 mg/kg administered as single dose via gavage by LC-MS/MS analysis; format: ADME, organism-based; details: in vivo
# Cytochrome P450 1A2 = molecular target: T2, Cytochrome P450 1A2 (Homo sapiens, UniProt P05177); assay: Inhibition of CYP1A2 in human liver microsomes using phenacetin as substrate preincubated for 5 mins followed by NADPH cofactor addition and measured after 10 mins by LC-MS/MS analysis; format: ADME
# T2 sequence (P05177 whole entry): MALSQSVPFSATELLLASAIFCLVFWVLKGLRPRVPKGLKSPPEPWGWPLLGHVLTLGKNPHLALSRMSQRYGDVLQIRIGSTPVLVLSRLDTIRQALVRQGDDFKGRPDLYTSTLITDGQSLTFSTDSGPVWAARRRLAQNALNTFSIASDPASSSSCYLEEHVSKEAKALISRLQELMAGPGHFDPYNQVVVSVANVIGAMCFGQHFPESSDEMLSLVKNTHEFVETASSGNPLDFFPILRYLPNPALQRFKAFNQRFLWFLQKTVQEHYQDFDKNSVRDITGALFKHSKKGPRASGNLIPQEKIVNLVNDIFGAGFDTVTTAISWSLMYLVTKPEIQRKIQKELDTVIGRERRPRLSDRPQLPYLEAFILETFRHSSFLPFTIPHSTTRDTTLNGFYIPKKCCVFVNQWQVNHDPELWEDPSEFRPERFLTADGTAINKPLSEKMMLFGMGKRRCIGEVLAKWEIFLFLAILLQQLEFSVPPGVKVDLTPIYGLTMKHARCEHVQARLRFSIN
# Cytochrome P450 2C19 = Cytochrome P450 2C19 (Homo sapiens, UniProt P33261); assay: Inhibition of CYP2C19 in human liver microsomes using (S)-mephenytoin as substrate preincubated for 5 mins followed by NADPH cofactor addition and measured after 40 mins by LC-MS/MS analysis; format: ADME
# Chain of Cytochrome P450 2C19 (P33261 whole entry): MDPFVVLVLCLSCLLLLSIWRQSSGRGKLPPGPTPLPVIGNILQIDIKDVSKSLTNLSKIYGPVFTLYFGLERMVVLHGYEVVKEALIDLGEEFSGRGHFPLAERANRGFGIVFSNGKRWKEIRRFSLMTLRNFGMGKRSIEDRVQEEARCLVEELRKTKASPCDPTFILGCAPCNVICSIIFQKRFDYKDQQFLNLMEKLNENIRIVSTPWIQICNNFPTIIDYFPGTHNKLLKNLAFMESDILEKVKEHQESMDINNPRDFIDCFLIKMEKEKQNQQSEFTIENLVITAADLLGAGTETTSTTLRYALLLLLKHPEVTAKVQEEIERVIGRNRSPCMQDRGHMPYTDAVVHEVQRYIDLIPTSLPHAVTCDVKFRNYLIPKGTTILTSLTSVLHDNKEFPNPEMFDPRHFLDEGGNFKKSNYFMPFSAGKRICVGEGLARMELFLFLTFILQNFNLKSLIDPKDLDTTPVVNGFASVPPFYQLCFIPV
# Cytochrome P450 3A4 = Cytochrome P450 3A4 (Homo sapiens, UniProt P08684); assay: Inhibition of CYP3A4 in human liver microsomes using midazolam as substrate preincubated for 5 mins followed by NADPH cofactor addition and measured after 10 mins by LC-MS/MS analysis; format: ADME
# Chain of Cytochrome P450 3A4 (P08684 whole entry): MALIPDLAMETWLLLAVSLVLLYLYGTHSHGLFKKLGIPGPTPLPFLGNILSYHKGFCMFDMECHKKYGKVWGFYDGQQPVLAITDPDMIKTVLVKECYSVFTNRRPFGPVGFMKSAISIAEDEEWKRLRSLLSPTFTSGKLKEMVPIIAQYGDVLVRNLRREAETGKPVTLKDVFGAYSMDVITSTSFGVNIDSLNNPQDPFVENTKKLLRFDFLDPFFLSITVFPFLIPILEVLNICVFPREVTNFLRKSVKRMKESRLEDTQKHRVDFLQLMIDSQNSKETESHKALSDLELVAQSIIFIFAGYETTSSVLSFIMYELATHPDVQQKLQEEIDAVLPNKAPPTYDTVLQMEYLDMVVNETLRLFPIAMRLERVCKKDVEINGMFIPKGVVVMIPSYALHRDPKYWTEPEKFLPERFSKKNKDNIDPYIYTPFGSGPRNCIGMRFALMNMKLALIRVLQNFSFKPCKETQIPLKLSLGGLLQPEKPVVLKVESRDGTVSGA
# [9] = Elimination half life in Sprague-Dawley rat at 3 mg/kg, iv or 10 mg/kg, po administered as single dose via gavage by LC-MS/MS analysis; format: ADME, organism-based; details: in vivo, read-out: beta t1/2 (converted)
# [10] = Drug level in plasma of Sprague-Dawley rat at 10 mg/kg, po administered as single dose via gavage measured at 24 hrs by LC-MS/MS analysis; format: ADME, organism-based
# [11] = Drug level in plasma of Sprague-Dawley rat at 10 mg/kg, po administered as single dose via gavage measured at 48 hrs by LC-MS/MS analysis; format: ADME, organism-based
# [12] = Drug level in liver of Sprague-Dawley rat at 10 mg/kg, po administered as single dose via gavage measured at 2 hrs by LC-MS/MS analysis; format: ADME, organism-based; details: read-out: Drug uptake
# [13] = Drug level in liver of Sprague-Dawley rat at 10 mg/kg, po administered as single dose via gavage measured at 24 hrs by LC-MS/MS analysis; format: ADME, organism-based; details: read-out: Drug uptake
# [14] = Drug level in liver of Sprague-Dawley rat at 10 mg/kg, po administered as single dose via gavage measured at 32 hrs by LC-MS/MS analysis; format: ADME, organism-based; details: read-out: Drug uptake
# [15] = Drug level in brain of Sprague-Dawley rat at 10 mg/kg, po administered as single dose via gavage measured at 2 hrs by LC-MS/MS analysis; format: ADME, organism-based; details: read-out: Drug uptake
# [16] = Drug level in brain of Sprague-Dawley rat at 10 mg/kg, po administered as single dose via gavage measured at 4 hrs by LC-MS/MS analysis; format: ADME, organism-based; details: read-out: Drug uptake
# [17] = Drug level in brain of Sprague-Dawley rat at 10 mg/kg, po administered as single dose via gavage measured at 8 hrs by LC-MS/MS analysis; format: ADME, organism-based; details: read-out: Drug uptake
# [18] = Drug level in brain of Sprague-Dawley rat at 10 mg/kg, po administered as single dose via gavage measured at 24 hrs by LC-MS/MS analysis; format: ADME, organism-based; details: read-out: Drug uptake
# [19] = Drug level in brain of Sprague-Dawley rat at 10 mg/kg, po administered as single dose via gavage measured at 32 hrs by LC-MS/MS analysis; format: ADME, organism-based; details: read-out: Drug uptake
# [20] = Drug level in brain of Sprague-Dawley rat at 10 mg/kg, po administered as single dose via gavage measured at 48 hrs by LC-MS/MS analysis; format: ADME, organism-based; details: read-out: Drug uptake
# [21] = Ratio of AUC (0 to 48 hrs) in brain to plasma of Sprague-Dawley rat at 10 mg/kg, po administered as single dose via gavage by LC-MS/MS analysis; format: ADME, organism-based; details: brain and plasma, read-out: Ratio AUC
Structure (SMILES),IC50 [1] [µM],Drug metabolism [2] [nmol/min/mg],Drug metabolism [3] [nmol/min/mg],AUC(0-t) at 48 h [4] [µM·h],clearance [5] [mL/min/kg],half-life [6] [h],Cmax [7] [µM],bioavailability [8] [%],IC50 (Cytochrome P450 1A2) [µM],IC50 (Cytochrome P450 2C19) [µM],IC50 (Cytochrome P450 3A4) [µM],half-life [9] [h],concentration at 24 h [10] [µM],concentration at 2 h [12] [µM],concentration at 24 h [13] [µM],concentration at 2 h [15] [µM],concentration at 4 h [16] [µM],concentration at 8 h [17] [µM],concentration at 24 h [18] [µM],Kp [21],also measured
Nc1ncc(C(=O)N[C@H]2CC/C(=C\c3cccc(Oc4ccc(C(F)(F)F)cn4)c3)CC2)cn1 (centres undefined),0.0062,≤ 0.04,≤ 0.04,155,0.6,17.2,7.8,46,> 12.5,> 12.5,> 12.5,17.2,7,31,23,6.5,6.3,7.2,4.4,0.8,concentration at 48 h [11]: 1.3 µM; concentration at 32 h [14]: 13 µM; concentration at 32 h [19]: 2.3 µM; concentration at 48 h [20]: 1.1 µM
Cc1cc(C(=O)N[C@H]2CC/C(=C\c3cccc(Oc4ccc(C(F)(F)F)cn4)c3)CC2)cnc1N (centres undefined),0.0092,0.06 to 0.07,0.04 to 0.09,109,0.8,17,6.7,46,> 12.5,> 12.5,> 12.5,17,3.3,41,22,2,3.1,3.2,1.3,0.5,concentration at 48 h [11]: 1.1 µM; concentration at 32 h [14]: 20 µM; concentration at 32 h [19]: 1.2 µM; concentration at 48 h [20]: 0.6 µM
O=C(N[C@H]1CC/C(=C\c2cccc(Oc3ccc(C(F)(F)F)cn3)c2)CC1)c1cccnc1 (centres undefined),,0.04,< 0.04,47,2.4,5.1,7.2,35,> 10,4.6,2.4,5.1,0.5,52,7.7,6.1,6,4.7,1.1,1.5,
Nc1ccc(C(=O)N[C@H]2CC/C(=C\c3cccc(Oc4ccc(C(F)(F)F)cn4)c3)CC2)cn1 (centres undefined),0.0116,,,152,0.7,9.2,8.8,42,> 12.5,9.1,> 12.5,9.2,4.4,72.6,33,5.1,4.5,5.2,2.5,0.6,concentration at 48 h [11]: 1 µM; concentration at 32 h [14]: 26.5 µM; concentration at 32 h [19]: 1.9 µM; concentration at 48 h [20]: 0.7 µM
